From patent publication US11408016B2, “Amino acid dehydrogenase mutant and application in synthesis of L-glufosinate-ammonium thereof” (ZHEJIANG UNIVERSITY OF TECHNOLOGY, priority 2018, dated 2022) come the findings set out here.

Structures are written as SMILES.

The target in assay [1] is T1, Pseudomonas monteilii amino acid dehydrogenase DyGDH (WP_060477601.1), original pDyGDH, SEQ ID No. 2 (Pseudomonas promysalinigenes, UniProt A0ABY6AJQ3).
T1 sequence (A0ABY6AJQ3 1-446): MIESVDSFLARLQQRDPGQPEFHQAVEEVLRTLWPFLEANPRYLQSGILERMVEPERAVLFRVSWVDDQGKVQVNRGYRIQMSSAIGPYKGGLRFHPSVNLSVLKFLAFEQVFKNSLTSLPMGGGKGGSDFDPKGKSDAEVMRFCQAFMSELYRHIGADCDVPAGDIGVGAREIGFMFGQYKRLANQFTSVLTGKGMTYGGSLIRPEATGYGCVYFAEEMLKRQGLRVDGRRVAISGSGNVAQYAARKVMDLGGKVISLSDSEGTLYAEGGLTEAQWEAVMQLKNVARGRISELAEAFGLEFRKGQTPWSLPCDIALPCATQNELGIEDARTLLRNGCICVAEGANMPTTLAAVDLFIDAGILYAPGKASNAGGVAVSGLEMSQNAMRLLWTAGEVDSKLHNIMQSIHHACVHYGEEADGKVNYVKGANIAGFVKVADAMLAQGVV
Description: Kinetic parameter determination, original pDyGDH. In kind it is biochemical. Conditions: pH 7.4, 35° C. As to the method:
The gene of the amino acid dehydrogenase cloned from Pseudomonas monteilii WP_060477601.1 (the nucleotide sequence is shown in SEQ ID No. 1, and the amino acid sequence is shown in SEQ ID No. 2) was used to construct the expression vector pETDEut-dygdh, then the obtained vector was transformed into E. coli to obtain the original strain E. coli BL21(DE3)/pETDEut-dygdh. […]
(§1) The reaction system was 500 μL, the pure enzyme solution collected in Example 4 was diluted 10 times with pH 7.4, 100 mM phosphate buffer, then 100 μL of the resulting solution was sampled, added with the substrate and exogenous coenzyme NADPH, pH 7.4, 100 mM phosphate buffer was taken as a reaction medium, after reacting at 35° C. and 600 rpm for 10 min, the concentration of L-glufosinate-ammonium in the reacting solution was determined by HPLC (according to Example 4).
(§2) According to the sequential mechanism of amino acid dehydrogenase's catalytic reaction, vmax, Km^A, Km^B can be calculated by dual-reciprocal graph, the results were shown in Table 4.

The target of assay [2] is Pseudomonas monteilii amino acid dehydrogenase DyGDH variant pDyGDH-F95I-A108T-R172P-R303H (F95I/A108T/R172P/R303H of SEQ ID No. 2) (Pseudomonas promysalinigenes, UniProt A0ABY6AJQ3, A108T/F95I/R172P/R303H). Description: Kinetic parameter determination, pDyGDH-F95I-A108T-R172P-R303H. In kind it is biochemical. As to the method:
The gene of the amino acid dehydrogenase cloned from Pseudomonas monteilii WP_060477601.1 (the nucleotide sequence is shown in SEQ ID No. 1, and the amino acid sequence is shown in SEQ ID No. 2) was used to construct the expression vector pETDEut-dygdh, then the obtained vector was transformed into E. coli to obtain the original strain E. coli BL21(DE3)/pETDEut-dygdh.
The mutant proteins were purified by Ni-NTA column (1.6×10 cm, Bio-Rad, the USA), and the specific operation was carried out as follows: (1) a Ni column was equilibrated with 5 column volumes of binding buffer (pH 8.0, 50 mM sodium phosphate buffer containing 0.3 M NaCl) until the baseline was steady; (2) the sample was loaded with a flow rate of 1 mL/min, the amount of the loading sample was 25-40 mg/mL calculated by the volume of the column, thereby attaching the target protein to the Ni column; (3) the column was washed with 6 column volumes of buffer A (pH 8.0, 50 mM sodium phosphate buffer containing 0.3 M NaCl and 30 mM imidazole) at a flow rate of 1 mL/min until the baseline was steady; (4) the column was washed with buffer B (pH 8.0, 50 mM sodium phosphate buffer containing 0.3 M NaCl and 500 mM imidazole) at a flow rate of 1 mL/min, the target protein was collected and dialyzed overnight in a pH 7.5, 20 mM phosphate buffer, thereby obtaining the pure enzyme; and (5) the Ni column was washed with 5 column volumes of binding buffer (pH 8.0, 50 mM sodium phosphate buffer containing 0.3 M NaCl) until the baseline was steady, and the Ni column was stored in 5 column volumes of ultrapure water containing 20% ethanol.
Kinetic parameters of the amino acid hydrogenase and its mutants were examined, 2-carbonyl-4-(hydroxymethylphosphinyl)-butyric acid was taken as substrate, the concentration was set as 2-10 mM (2, 4, 6, 8, 10 mM), the concentration of exogenous coenzyme NADPH was set as 1-5 mM (1, 2, 3, 4, 5 mM), 100 uL of pure enzyme solution was added (according to Example 4).
as §1, §2

As for `NC(=O)C1=CN([C@@H]2O[C@H](COP(=O)(O)OP(=O)(O)OC[C@H]3O[C@@H](n4cnc5c(N)ncnc54)[C@H](OP(=O)(O)O)[C@@H]3O)[C@@H](O)[C@H]2O)C=CC1` [NADPH], the “kcat/Km^A (NADPH)” value was determined as 385670 M⁻¹ s⁻¹ in assay [1] and 1.43823e+07 M⁻¹ s⁻¹ in assay [2] (pH 7.4, 35° C.). For the same compound, in assay [2] (versus original pDyGDH), the “catalytic efficiency on coenzyme NADPH, times higher than that of the original enzyme” value is on record as 37.3 times.

`CP(=O)(O)CCC(=O)C(=O)O` [2-carbonyl-4-(hydroxymethylphosphinyl)-butyric acid]: the “kcat/Km^B (2-carbonyl-4-(hydroxymethylphosphinyl)-butyric acid)” value in assay [1] turned out to be 12410 M⁻¹ s⁻¹; in assay [2] (pH 7.4, 35° C.) it was 363100 M⁻¹ s⁻¹. In addition, the “catalytic efficiency kcat/Km^B on 2-carbonyl-4-(hydroxymethylphosphinyl)-butyric acid, times higher than that of the original enzyme” value in assay [2] (versus original pDyGDH) is reported as 29.3 times.
